What was measured:
CDK9/Cyclin T1 = CDK9/Cyclin T1 (Homo sapiens (Human), UniProt P50750); assay: CDK9 enzyme assay (LANCE ULight TR-FRET kinase assay); assay type: biochemical; details: 1000 μM ATP, 100 nM ULight MBP, kinase reaction 1 hour
Experimental: CDK9 enzyme activities were measured using LANCE ULight TR-FRET kinase assay reagents (PerkinElmer, Waltham, Mass.). Compounds were diluted in 100% DMSO then diluted with 1:10 in serine/threonine kinase assay buffer containing 20 mM HEPES, 10 mM MgCl2, […], and 0.0075% Triton X-100. Equal volume of the compound dilutions was added to a final reaction mixture containing LANCE detection buffer (PerkinElmer CR97-100), 100 nM ULight MBP (PerkinElmer TRF0109M), 1000 μM ATP, and CDK9/Cyclin T1 (Carna Biosciences 04-110). The kinase reaction was carried out for 1 hour before addition of stopping buffer to a final of 20 mM EDTA and 0.5 nM of LANCE Ultra Europium anti-phospho-MBP antibody (PerkinElmer TRF0201M) in LANCE detection buffer. The reaction was incubated for 1 hour and the signal was read in Envision in TR-FRET mode (excitation at 320 nm and emission at 615/665 nm).

H929 cells = assay: Cell viability assay (Cell TiterGlo); assay type: cell-based; details: Homo sapiens, NCI-H929, 24 hours at 37° C., Cell TiterGlo luminescence
Experimental: The cell viability assay was performed using H929 cells. Cells were seeded in 96-well plates at 10,000 cells/well and, after overnight incubation, treated with compounds in a dose response of 3-fold dilutions from 10 μM to 0.005 μM ([…], 0.1% final DMSO concentration). After 24 hours at 37° C., cell viability was measured using Cell TiterGlo reagent (Promega) with a luminescence reader.

Chain of CDK9/Cyclin T1 (P50750 whole entry): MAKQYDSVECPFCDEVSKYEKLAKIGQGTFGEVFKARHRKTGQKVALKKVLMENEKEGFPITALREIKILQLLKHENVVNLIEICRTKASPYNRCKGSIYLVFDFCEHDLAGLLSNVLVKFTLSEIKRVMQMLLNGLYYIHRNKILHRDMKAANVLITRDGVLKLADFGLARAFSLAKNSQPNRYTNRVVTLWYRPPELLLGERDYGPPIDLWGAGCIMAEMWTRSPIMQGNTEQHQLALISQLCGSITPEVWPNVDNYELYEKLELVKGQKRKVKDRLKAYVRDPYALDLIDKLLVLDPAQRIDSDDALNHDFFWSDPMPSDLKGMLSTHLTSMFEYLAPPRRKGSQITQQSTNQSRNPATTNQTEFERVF
Chain of CDK9/Cyclin T1 (O60563 whole entry partner): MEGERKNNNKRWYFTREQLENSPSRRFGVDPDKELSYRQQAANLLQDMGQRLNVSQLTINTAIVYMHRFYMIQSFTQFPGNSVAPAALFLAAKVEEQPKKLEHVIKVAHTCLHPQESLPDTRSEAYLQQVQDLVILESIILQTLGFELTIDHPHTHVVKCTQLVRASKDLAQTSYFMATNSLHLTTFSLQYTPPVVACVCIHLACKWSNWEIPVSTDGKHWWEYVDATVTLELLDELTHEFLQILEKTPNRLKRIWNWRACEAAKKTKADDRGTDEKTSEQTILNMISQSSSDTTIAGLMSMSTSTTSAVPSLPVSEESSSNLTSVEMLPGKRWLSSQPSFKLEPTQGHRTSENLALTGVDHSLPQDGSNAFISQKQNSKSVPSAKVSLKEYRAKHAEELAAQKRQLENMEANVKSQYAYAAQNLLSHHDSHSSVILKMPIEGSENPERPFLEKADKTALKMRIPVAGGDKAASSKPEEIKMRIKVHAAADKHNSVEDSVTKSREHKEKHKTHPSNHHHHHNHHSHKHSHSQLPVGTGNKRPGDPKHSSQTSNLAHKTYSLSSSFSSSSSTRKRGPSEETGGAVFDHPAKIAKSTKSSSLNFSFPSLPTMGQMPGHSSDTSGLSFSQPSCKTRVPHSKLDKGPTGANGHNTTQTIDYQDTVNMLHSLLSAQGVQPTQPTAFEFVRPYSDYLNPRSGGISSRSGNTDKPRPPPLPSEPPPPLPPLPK

IC50 (CDK9/Cyclin T1) [nM]	IC50 (H929 cells) [nM]	SMILES
110	830	CN1Cc2c(-c3ccc(S(C)(=O)=O)nc3)[nH]c3nccc(c23)-c2cc(F)ccc21 [Example 45, 10-fluoro-7-methyl-5-[6-(methylsulfonyl)pyridin-3-yl]-6,7-dihydro-4H-3,4,7-triazadibenzo[cd,f]azulene]
3300	> 10000	CN1Cc2c(-c3cnc(N)nc3)[nH]c3nccc(c23)-c2cc(F)ccc21 [Example 46, 5-(10-fluoro-7-methyl-6,7-dihydro-4H-3,4,7-triazadibenzo[cd,f]azulen-5-yl)pyrimidin-2-amine]
150	9800	CN1Cc2c(-c3ccc(C(=O)O)cc3)[nH]c3nccc(c23)-c2cc(F)ccc21 [Example 47, 4-(10-fluoro-7-methyl-6,7-dihydro-4H-3,4,7-triazadibenzo[cd,f]azulen-5-yl)benzoic acid]
780	780	CN1Cc2c(C3=CCN(C(=O)OC(C)(C)C)CC3)[nH]c3ncc(F)c(c23)-c2cc(F)ccc21 [Example 49, tert-butyl 4-(1,10-difluoro-7-methyl-6,7-dihydro-4H-3,4,7-triazadibenzo[cd,f]azulen-5-yl)-3,6-dihydropyridine-1(2H)-carboxylate]
120	960	CN(C)C(=O)C1CC=C(c2[nH]c3nccc4c3c2CN(C)c2ccc(F)cc2-4)CC1 (stereo not shown) [Example 50, 4-(10-fluoro-7-methyl-6,7-dihydro-4H-3,4,7-triazadibenzo[cd,f]azulen-5-yl)-N,N-dimethylcyclohex-3-ene-1-carboxamide]
110	470	CN1Cc2c(C3=CCC(C(=O)N4CC(O)C4)CC3)[nH]c3nccc(c23)-c2cc(F)ccc21 (stereo not shown) [Example 51, [4-(10-fluoro-7-methyl-6,7-dihydro-4H-3,4,7-triazadibenzo[cd,f]azulen-5-yl)cyclohex-3-en-1-yl](3-hydroxyazetidin-1-yl)methanone]
63	150	CNC(=O)C1CC=C(c2[nH]c3nccc4c3c2CN(C)c2ccc(F)cc2-4)CC1 (stereo not shown) [Example 52, 4-(10-fluoro-7-methyl-6,7-dihydro-4H-3,4,7-triazadibenzo[cd,f]azulen-5-yl)-N-methylcyclohex-3-ene-1-carboxamide]
57	47	CN1Cc2c(C3=CCN(CC(=O)N(CCO)CCO)CC3)[nH]c3nccc(c23)-c2cc(F)ccc21 [Example 53, 2-[4-(10-fluoro-7-methyl-6,7-dihydro-4H-3,4,7-triazadibenzo[cd,f]azulen-5-yl)-3,6-dihydropyridin-1(2H)-yl]-N,N-bis(2-hydroxyethyl)acetamide]
88	190	CN1Cc2c(C3=CC4CNCC4C3)[nH]c3nccc(c23)-c2cc(F)ccc21 (stereo not shown) [Example 59, 10-fluoro-5-(1,2,3,3a,4,6a-hexahydrocyclopenta[c]pyrrol-5-yl)-7-methyl-6,7-dihydro-4H-3,4,7-triazadibenzo[cd,f]azulene]
75	320	CN1Cc2c(-c3cccnc3)[nH]c3nccc(c23)-c2cc(F)ccc21 [Example 60, 10-fluoro-7-methyl-5-(pyridin-3-yl)-6,7-dihydro-4H-3,4,7-triazadibenzo[cd,f]azulene]
400	1200	CCOC(=O)C1CC=C(c2[nH]c3nccc4c3c2CN(C)c2ccc(F)cc2-4)CC1 (stereo not shown) [Example 61, ethyl 4-(10-fluoro-7-methyl-6,7-dihydro-4H-3,4,7-triazadibenzo[cd,f]azulen-5-yl)cyclohex-3-ene-1-carboxylate]
38	90	CN(CC(O)CO)C(=O)CN1CC=C(c2[nH]c3nccc4c3c2CN(C)c2ccc(F)cc2-4)CC1 (stereo not shown) [Example 63, N-(2,3-dihydroxypropyl)-2-[4-(10-fluoro-7-methyl-6,7-dihydro-4H-3,4,7-triazadibenzo[cd,f]azulen-5-yl)-3,6-dihydropyridin-1(2H)-yl]-N-methylacetamide]
62	94	CN1Cc2c(C3=CCN(CC(=O)N4CCC[C@@H]4CO)CC3)[nH]c3nccc(c23)-c2cc(F)ccc21 [Example 64, 2-[4-(10-fluoro-7-methyl-6,7-dihydro-4H-3,4,7-triazadibenzo[cd,f]azulen-5-yl)-3,6-dihydropyridin-1(2H)-yl]-1-[(2R)-2-(hydroxymethyl)pyrrolidin-1-yl]ethanone]
80	95	COCCS(=O)(=O)N1CC2C=C(c3[nH]c4nccc5c4c3CN(C)c3ccc(F)cc3-5)CC2C1 (stereo not shown) [Example 69, 10-fluoro-5-{2-[(2-methoxyethyl)sulfonyl]-1,2,3,3a,4,6a-hexahydrocyclopenta[c]pyrrol-5-yl}-7-methyl-6,7-dihydro-4H-3,4,7-triazadibenzo[cd,f]azulene]
86	5	CN1Cc2c(C3=CCN(CC(=O)N4CCC[C@H]4CO)CC3)[nH]c3ncc(F)c(c23)-c2cc(F)ccc21 [Example 70, 2-[4-(1,10-difluoro-7-methyl-6,7-dihydro-4H-3,4,7-triazadibenzo[cd,f]azulen-5-yl)-3,6-dihydropyridin-1(2H)-yl]-1-[(2S)-2-(hydroxymethyl)pyrrolidin-1-yl]ethanone]

The next lines start with the compound.

SMILES	IC50 (CDK9/Cyclin T1) [nM]	IC50 (H929 cells) [nM]
CN1Cc2c(C3=CCNCC3)[nH]c3ncc(F)c(c23)-c2cc(F)ccc21 [Example 48, 1,10-difluoro-7-methyl-5-(1,2,3,6-tetrahydropyridin-4-yl)-6,7-dihydro-4H-3,4,7-triazadibenzo[cd,f]azulene]	27	20
CN1Cc2c(C3=CCN(CC(=O)N4CC(F)(F)C4)CC3)[nH]c3nccc(c23)-c2cc(F)ccc21 [Example 54, 1-(3,3-difluoroazetidin-1-yl)-2-[4-(10-fluoro-7-methyl-6,7-dihydro-4H-3,4,7-triazadibenzo[cd,f]azulen-5-yl)-3,6-dihydropyridin-1(2H)-yl]ethanone]	63	92
CN(C)C(=O)CN1[C@H]2CC[C@@H]1C=C(c1[nH]c3nccc4c3c1CN(C)c1ccc(F)cc1-4)C2 [Example 55, 2-[(1R,5S)-3-(10-fluoro-7-methyl-6,7-dihydro-4H-3,4,7-triazadibenzo[cd,f]azulen-5-yl)-8-azabicyclo[3.2.1]oct-2-en-8-yl]-N,N-dimethylacetamide]	160	150
CN1Cc2c(C3=C[C@H]4CC[C@@H](C3)N4S(C)(=O)=O)[nH]c3nccc(c23)-c2cc(F)ccc21 [Example 56, 10-fluoro-7-methyl-5-[(1R,5S)-8-(methylsulfonyl)-8-azabicyclo[3.2.1]oct-2-en-3-yl]-6,7-dihydro-4H-3,4,7-triazadibenzo[cd,f]azulene]	96	680
CNC(=O)N1[C@H]2CC[C@@H]1C=C(c1[nH]c3nccc4c3c1CN(C)c1ccc(F)cc1-4)C2 [Example 57, (1R,5S)-3-(10-fluoro-7-methyl-6,7-dihydro-4H-3,4,7-triazadibenzo[cd,f]azulen-5-yl)-N-methyl-8-azabicyclo[3.2.1]oct-2-ene-8-carboxamide]	200	2200
CN1Cc2c(C3=C[C@H]4CC[C@@H](C3)N4CC(=O)O)[nH]c3nccc(c23)-c2cc(F)ccc21 [Example 58, [(1R,5S)-3-(10-fluoro-7-methyl-6,7-dihydro-4H-3,4,7-triazadibenzo[cd,f]azulen-5-yl)-8-azabicyclo[3.2.1]oct-2-en-8-yl]acetic acid]	170	1400
CN1Cc2c(C3=C[C@H]4CC[C@@H](C3)N4)[nH]c3nccc(c23)-c2cc(F)ccc21 [Example 62, 5-[(1R,5S)-8-azabicyclo[3.2.1]oct-2-en-3-yl]-10-fluoro-7-methyl-6,7-dihydro-4H-3,4,7-triazadibenzo[cd,f]azulene]	46	150
CN1Cc2c(C3=CCN(CC(=O)OC(C)(C)C)CC3)[nH]c3ncc(F)c(c23)-c2cc(F)ccc21 [Example 65, tert-butyl[4-(1,10-difluoro-7-methyl-6,7-dihydro-4H-3,4,7-triazadibenzo[cd,f]azulen-5-yl)-3,6-dihydropyridin-1(2H)-yl]acetate]	100	140
CN(C)C(=O)CN1CC=C(c2[nH]c3ncc(F)c4c3c2CN(C)c2ccc(F)cc2-4)CC1 [Example 66, 2-[4-(1,10-difluoro-7-methyl-6,7-dihydro-4H-3,4,7-triazadibenzo[cd,f]azulen-5-yl)-3,6-dihydropyridin-1(2H)-yl]-N,N-dimethylacetamide]	44	10
CN1Cc2c(C3=CCN(CC(=O)O)CC3)[nH]c3ncc(F)c(c23)-c2cc(F)ccc21 [Example 67, [4-(1,10-difluoro-7-methyl-6,7-dihydro-4H-3,4,7-triazadibenzo[cd,f]azulen-5-yl)-3,6-dihydropyridin-1(2H)-yl]acetic acid]	48	130
CN1Cc2c(C3=CCN(CC(=O)N4CC(O)C4)CC3)[nH]c3ncc(F)c(c23)-c2cc(F)ccc21 [Example 72, 2-[4-(1,10-difluoro-7-methyl-6,7-dihydro-4H-3,4,7-triazadibenzo[cd,f]azulen-5-yl)-3,6-dihydropyridin-1(2H)-yl]-1-(3-hydroxyazetidin-1-yl)ethanone]	79	21

— patent publication US9328112B2, “Tetracyclic CDK9 kinase inhibitors” (AbbVie Inc., priority 2014, dated 2016)
